Test results reported in patent US20130336987A1, “Identification of Therapeutic Targets in Cutaneous SCC” (UNIVERSITY OF DUNDEE, priority 2010, published 2013).
Entries after “also recorded” stand apart in the source; their conditions may differ.

Experiments:
[1] = test system: cSCC keratinocytes (SCCIC1, SCCRDEB2); assay: MTS cell viability assay in cSCC keratinocytes; format: cell-based, human; conditions: 72 hours, GW843682X 10 μM, BI2536 5 μM
Method: For the initial high-throughput RNAi screen we used a custom library to our 21 up regulated genes containing the top 3 siRNA oligonucleotides per gene as ranked by Sigma. In each experiment a negative control (MISSION® siRNA Universal Negative Control #1, Sigma) and positive control (AllStars Hs Cell Death Control siRNA, Qiagen) were used. Cells were seeded in 96-well plates at 5000 cells/well in 100 μl keratinocyte media and transfected 24 hours later with siRNA (40 nM final concentration) using Lipofectamine™ 2000, Invitrogen, Carlsbad, Calif.) diluted in Opti-MEM® (Invitrogen) according to manufacturers instructions. Cell viability was assessed at 48, 72 and 96 hours post-transfection, and a reading taken at time zero (pre-transfection), using the MTS CellTitre 96 AQueous One Solution Cell Proliferation Assay (Promega, Madison, Wis.) according to manufacturers instructions. Absorbance readings were taken at 490 nm using a VersaMax microplate reader (Molecular Devices, Sunnyvale, Calif.).
For RNAi transfection, cells were seeded in 6-well plates at 2.5×10^5 cells/well and 24 hours later transfected as described above. Cells were left for 16 hours then trypsinized, counted on a CASY counter (Roche Diagnostics Ltd, West Sussex, UK) and seeded in 96 well plates at 3000 cells/well in 100 μl media. […] Viability was assessed as before.

[2] = test system: normal human keratinocytes (NHK); assay: MTS cell viability assay in normal keratinocytes; format: cell-based; conditions: 72 hours, GW843682X 10 μM, BI2536 5 μM
Method: For RNAi transfection, cells were seeded in 6-well plates at 2.5×10^5 cells/well and 24 hours later transfected as described above. Cells were left for 16 hours then trypsinized, counted on a CASY counter (Roche Diagnostics Ltd, West Sussex, UK) and seeded in 96 well plates at 3000 cells/well in 100 μl media. Cell viability was determined using the MTS assay as described above, with an absorbance reading at time of seeding (T0) and readings 48 and 72 hour post transfection. For small molecule inhibitor treatment cells were seeded in 96-well plates at 3000 cells/well and 24 hours later 100 μl fresh media containing drug at the designated final concentrations added. Viability was assessed as before.

cSCC keratinocytes [3] = assay: Cell cycle analysis (BrdU / propidium iodide, flow cytometry); format: cell-based, human; conditions: 20 hours following drug treatment, GW843682X 10 μM, BI2536 5 μM
Method: Cells were RNAi transfected or drug treated for designated times before BrdU (Sigma) was added at 30 μM final volume for 20 min. Cells were collected and fixed by dropping 1 ml cell suspension in PBS into 3 ml ice cold ethanol while vortexing. Pepsin (Sigma) was added at 1 mg/ml in 30 mM HCL for 30 min and DNA denatured with 2N HCL for 20 min. Anti-BrdU antibody (Becton Dickinson) diluted in PBS/0.5% Tween/0.5% BSA was added for one hour followed by 30 min incubation with a FITC-sheep anti-mouse IgG (Sigma). Propidium iodide (Sigma) was added in the final wash step at a concentration of 25 μg/ml and samples analyzed using a FACScan flow cytometer and CellQuest software (Becton Dickinson).

cSCC keratinocytes [4] = assay: Cell Death Detection ELISA (apoptosis, cytoplasmic nucleosomes) in cSCC cells; format: cell-based, human; conditions: GW843682X 10 μM, BI2536 5 μM, relative to drug vehicle control
Method: Apoptosis was detected using the Cell Death Detection ELISA^PLUS (Roche Diagnostics Ltd, West Sussex, UK). Cells were seeded in 24-well plates at 0.5×10^5 cells/well for 24 hours and either transfected with siRNA or treated with small molecule inhibitors for 24 or 16 hours respectively before collecting lysates and performing ELISA as described by manufacturer.

SCCIC1 xenograft tumors = assay: SCCIC1 xenograft tumor treatment in SCID mice; format: in vivo, SCID Balb/c mice
Method: FIG. 6—PLK1 inhibition and c20orf20 knockdown inhibits tumor growth in vivo. Female SCID Balb/c mice were subcutaneously injected in the right flank with 4×10^6 SCCIC1 cells mixed with high-concentration Matrigel®. When tumors reached a volume of 100 mm^3, animals were organised in treated and control groups. (A) Top panel: SCCIC1 tumors were treated with the PLK1 inhibitor, BI 2536. The treated group (n=3) was injected into the tumor with 100 μl of BI 2536 formulated in hydrochloric acid (0.1 N), diluted with 0.9% NaCl at a dose of 25 mg/kg, 3 times a week during 2 weeks. The control group (n=2) was injected with the vehicle at the same schedule. Tumor volumes were measured 3 times a week with a calliper for a further 2 weeks after treatment. Bottom panel: SCCIC1 tumors were treated with c20orf20 siRNA. The treated group (n=3) was injected into the tumor with 580 pmol c20orf20 targeting siRNA duplex in 100 μl PBS. The control group was injected with 580 pmol non-targeting siRNA duplex in approximately 100 μl PBS. Each group was treated every other day for 16 cycles. The animals were sacrificed 2 days after the last treatment. (B) Representative H&E stained section (top) and keratin immunostained section (bottom) of control (left) and BI2536-treated (right) SCCIC1 tumors after 2 weeks of treatment. A subset of animals was sacrificed at the end of the 6 cycles of treatment without waiting 2 more weeks. […] The control tumors contained numerous SCCIC1 cells (100× magnification). (C) Representative pictures from the experiment shown in (A) of vehicle (top left, tumor bisected showing both halves delineated by the dashed line) and BI2536-treated (top right) SCCIC1 tumors. […]
Primary keratinocytes were isolated and grown in the presence of a mitotically inactivated 3T3 feeder layer as described (Rheinwald and Beckett, 1981). […] Tumors were measured by caliper and treatment began when volume reached 100 mm^3.

## CC[C@@H]1C(=O)N(C)c2cnc(Nc3ccc(C(=O)NC4CCN(C)CC4)cc3OC)nc2N1C1CCCC1 [BI2536]
[1]
  cell viability (MTS assay): potent reduction of cell viability
[2]
  growth of normal primary keratinocytes (MTS assay): no effect
cSCC keratinocytes [3]
  cell cycle distribution (G0/G1, S, G2/M): accumulation of cells at the G2/M phase
cSCC keratinocytes [4]
  apoptosis (cleaved nucleosomes in the cytoplasm): substantial induction of apoptosis
SCCIC1 xenograft tumors; BI2536 25 mg/kg injected into the tumor, 3 times a week, 2 weeks, treated versus control group
  tumor volume at the end of the 6 cycles of treatment: no difference in tumor volume
SCCIC1 xenograft tumors; BI2536 25 mg/kg injected into the tumor, 3 times a week, after 2 weeks of treatment, versus vehicle, 25 mg/kg
  presence of tumor keratinocytes in the tumor (histology): without any discernable SCCIC1 tumor cells; also recorded: marked reduction in the presence of tumor keratinocytes
SCCIC1 xenograft tumors; BI2536, SCCIC1 xenograft
  efficacy in treating cSCC in vivo: dramatic efficacy

## COc1cc2ncn(-c3cc(OCc4ccccc4C(F)(F)F)c(C(N)=O)s3)c2cc1OC [GW843682X]
[1]
  cell viability (MTS assay): potent reduction of cell viability
[2]
  growth of normal primary keratinocytes (MTS assay): no effect
cSCC keratinocytes [3]
  cell cycle distribution (G0/G1, S, G2/M): accumulation of cells at the G2/M phase
cSCC keratinocytes [4]
  apoptosis (cleaved nucleosomes in the cytoplasm): substantial induction of apoptosis
